According to article PMC8869731, “KasQ an Epimerase Primes the Biosynthesis of Aminoglycoside Antibiotic Kasugamycin and KasF/H Acetyltransferases Inactivate Its Activity” (Biomedicines, 2022):
Entries after “also recorded” stand apart in the source; their conditions may differ.

Legend:
[1] = tested on: E. coli BL21 (DE3) cells with/without the kasH or kasF gene; experiment: Disc diffusion assay (resistance assay); format: cell-based
Method: KSM susceptibility and production were confirmed by disc diffusion assay. An E. coli culture was grown at 37 °C overnight and spread on an LB agar plate (pH 7.0). About 5 µL of extracted samples from Streptomyces lividans TK64 (from days 2–5) were loaded onto the paper disc. The disc was placed onto the surface of an LB agar plate and incubated at 37 °C overnight to visualize the zone of inhibition (ZOI).
For the KSM resistant assay, BL21 cells with/without the kasH or kasF gene were individually expressed and seeded on LB agar plates (pH 7.0). About 5 µL of different aminoglycoside antibiotics (amikacin, gentamicin, sisomicin, streptothricin-F, or tobramycin) were loaded onto each paper disc and placed on the surface of the LB plates. The plates were incubated 37 °C overnight to visualize the appearance of the zone of inhibition (ZOI). Note: this is a standard protocol for evaluating the effectiveness of common antibiotics, including aminoglycosides; there is no apparent impact concerning the structural integrity or biological deterioration of the selected aminoglycosides at pH 7.0 during the examining course.

KasH [2] = target: T1, KasH (Streptomyces kasugaensis, UniProt A0A0K1H2T0); experiment: HPLC acetylation assay with KasH and AcCoA; format: biochemical; conditions: 1 mM substrate, 0.5 mM AcCoA, 37 °C, 12 h
KasH [3] = target: T1, KasH; experiment: ITC of KasH versus ligands;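 note: isothermal titration calorimetry at 25 °C, 0.1 mM KasH in the cell titrated with 1 mM ligand over 18 injections, data fit with a one-site binding model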
Method: (§3) ITC analyses were carried out at 25 °C using an ITC200 microcalorimeter (MicroCal Inc., Northampton, MA, USA). […] The titration experiment contains 18 injections (2 μL for a duration of 4 s) and each injection was separated by 120 s. The distilled water was filled in the reference cell throughout all titrations. The cell stirring speed was 1000 rpm. The collected raw data were processed in Origin 7.0 (provided by MicroCal) by a non-linear least square method to a single-site binding model.

KasF = experiment: HPLC acetylation assay with KasF and AcCoA; format: biochemical, Streptomyces kasugaensis; conditions: 1 mM substrate, 0.5 mM AcCoA, 37 °C, 12 h
[4] = target: KasQ (Streptomyces kasugaensis); experiment: not stated; oligomeric state of the purified protein in solution (Figure S3: protein overexpression and purification); the method is not named in the text shown
KasQ [5] = target: T2, KasQ (Streptomyces kasugaensis, UniProt A0A0K1H2R6); experiment: Isothermal titration calorimetry (ITC) of KasQ wild type versus substrates; format: binding; conditions: ITC, KasQ wild type; for Kd: 25 °C, 50 mM HEPES pH 8.0, 100 mM NaCl;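 for all read-outs here: titration of 1 mM substrate into 0.1 mM KasQ, 18 injections spaced 120 s, data fitted to a single-site binding model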
T2 sequence (A0A0K1H2R6 entry or part of it): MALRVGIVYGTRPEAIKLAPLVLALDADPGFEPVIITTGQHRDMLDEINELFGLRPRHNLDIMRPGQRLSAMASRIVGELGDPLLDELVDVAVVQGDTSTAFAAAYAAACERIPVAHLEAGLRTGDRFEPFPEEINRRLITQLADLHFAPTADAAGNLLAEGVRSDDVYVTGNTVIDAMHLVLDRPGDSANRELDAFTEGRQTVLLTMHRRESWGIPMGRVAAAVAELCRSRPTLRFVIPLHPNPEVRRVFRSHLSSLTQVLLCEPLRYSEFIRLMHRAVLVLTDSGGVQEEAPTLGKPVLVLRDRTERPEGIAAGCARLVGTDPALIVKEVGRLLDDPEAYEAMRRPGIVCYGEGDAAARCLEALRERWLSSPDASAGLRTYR
Method: as §3

KasQ [6] = target: T2, KasQ; experiment: HPLC kinetic analysis of KasQ epimerization; format: biochemical; conditions: KasQ_WT with UDP-GlcNAc and 1 mM MgCl2, 25 mM Tris pH 8.0, 37 °C
Method: The reaction mixture was mixed by vortex and incubated at 37 °C. Reactions were stopped at six different time points (10, 30, 60, 120, 180, and 240 min) by adding equal volumes of chloroform. Precipitation was removed by centrifugation and analyzed by HPLC-LTQ-MS using HPLC method B as described above. […] The Michaelis–Menten curve of the KasQ activity was derived from the integrated peak area of each reaction.

KasQ Q95E = KasQ Q95E (Streptomyces kasugaensis, UniProt A0A0K1H2R6, Q95E); experiment: biochemical; format: binding
KasQ Q95E, sequence (A0A0K1H2R6 entry or part of it Q95E): as the sequence (A0A0K1H2R6 entry or part of it) above, with Q95E counted along it
Method: (§1) Site-directed mutagenesis was performed using QuikChange (Stratagene), following the manufacturer’s protocol. The wild-type KasQ plasmid (BCRC12349) was used as the template for the single mutation. All mutations were confirmed by DNA sequencing. KasQ mutants were expressed and purified with the same protocol as used for the wild-type protein.
(§2) The cell stirring speed was 1000 rpm.

KasQ Q95A = KasQ Q95A (Streptomyces kasugaensis, UniProt A0A0K1H2R6, Q95A); experiment: biochemical; format: binding
KasQ Q95A, sequence (A0A0K1H2R6 entry or part of it Q95A): as the sequence (A0A0K1H2R6 entry or part of it) above, with Q95A counted along it
Method: as §1, §2

KasQ E308A = KasQ E308A (Streptomyces kasugaensis, UniProt A0A0K1H2R6, E308A); experiment: biochemical; format: binding; conditions: ITC; KasQ mutant E308A
KasQ E308A, sequence (A0A0K1H2R6 entry or part of it E308A): as the sequence (A0A0K1H2R6 entry or part of it) above
Method: as §1, §2

KasQ E308Q = KasQ E308Q (Streptomyces kasugaensis, UniProt A0A0K1H2R6, E308Q); format: binding; conditions: ITC; KasQ mutant E308Q
KasQ E308Q, sequence (A0A0K1H2R6 entry or part of it E308Q): as the sequence (A0A0K1H2R6 entry or part of it) above
Method: as §1, §2

[7] = target: the molecule itself; experiment: not stated; oligomeric state of the purified protein in solution (Figure S3: protein overexpression and purification); the method is not named in the text shown
[8] = E. coli BL21 with/without the kasH or kasF gene, all conditions

**Q.** How did the “zone of inhibition (ZOI)” value [1, 8] turn out when `CNC(C)C1CCC(N)C(OC2C(N)CC(N)C(OC3OCC(C)(O)C(NC)C3O)C2O)O1` (stereo not shown) [gentamicin] was run?
**A.** Its value is “appearance of ZOI in all conditions”.

**Q.** How did the “acetylation by KasH” value (KasH [2]) turn out when `C[C@H]1O[C@H](O[C@H]2[C@H](O)[C@@H](O)[C@@H](O)[C@H](O)[C@@H]2O)[C@@H](N)C[C@@H]1NC(=N)C(=O)O` [KSM, Kasugamycin] was run?
**A.** The value was “completely acetylated”.

**Q.** And the n (KasH [3]; ITC binding stoichiometry, KasH, 50 mM MOPS pH 7.5, 100 mM NaCl)?
**A.** Its n is 1.0 ± 0.1.

**Q.** What about the “∆G” value (KasH [3]; ITC, KasH) of the same molecule?
**A.** The value was -5.804 ± 0.4705 kcal/mol.

**Q.** What about the “∆H” value (KasH [3]; ITC, KasH) of the same molecule?
**A.** The value was -2.316 ± 0.4705 kcal/mol.

**Q.** What about the “∆S” value (KasH [3]; ITC, KasH) of the same molecule?
**A.** Its value is 11.7 cal mol-1 K-1.

**Q.** What about the Kd (KasH [3]; ITC, KasH, 50 mM MOPS pH 7.5, 100 mM NaCl) of the same molecule?
**A.** The Kd was 56.1 µM.

**Q.** And the “binding affinity versus KasH relative to AcCoA” value (KasH [3]; ITC, higher than AcCoA)?
**A.** The value was 2.9 fold.

**Q.** What about the “binding affinity versus KasH relative to CoA” value (KasH [3]; ITC, higher than CoA) of the same molecule?
**A.** Its value is 1.7 fold.

**Q.** And the “growth of E. coli in the presence of KSM” value ([1]; E. coli BL21 (DE3) carrying the kasF gene, disc ~5 μL of 7.6 mg/mL KSM)?
**A.** The value was “moderate growth”.

**Q.** And the “growth of E. coli in the presence of KSM” value ([1]; E. coli BL21 (DE3) carrying the kasH gene, disc ~5 μL of 7.6 mg/mL KSM)?
**A.** Its value is “not affected”.

**Q.** And the “zone of inhibition (ZOI)” value ([1]; E. coli BL21 (DE3) with empty pET28a+ (no acetyltransferase gene), disc ~5 μL of 7.6 mg/mL KSM)?
**A.** Its value is “clear zone of inhibition”.

**Q.** What about the “acetylation by KasF” value (KasF) of the same molecule?
**A.** Its value is “partially acetylated”.

**Q.** How did the “zone of inhibition (ZOI)” value [1, 8] turn out when `NCC[C@H](O)C(=O)N[C@@H]1C[C@H](N)[C@@H](O[C@H]2O[C@H](CN)[C@@H](O)[C@H](O)[C@H]2O)[C@H](O)[C@H]1O[C@H]1O[C@H](CO)[C@@H](O)[C@H](N)[C@H]1O` [amikacin] was run?
**A.** The value was “appearance of ZOI in all conditions”.

**Q.** KasQ (enzyme) was tested. Which stoichiometry N [4] did it give?
**A.** Its stoichiometry N is 2.

**Q.** How did the “zone of inhibition (ZOI)” value [1, 8] turn out when `NC[C@H]1O[C@H](O[C@H]2[C@H](O)[C@@H](O[C@H]3O[C@H](CO)[C@@H](O)[C@H](N)[C@H]3O)[C@H](N)C[C@@H]2N)[C@H](N)[C@@H](O)[C@@H]1O` [kanamycin B] was run?
**A.** The value was “appearance of ZOI in all conditions”.

**Q.** `NC[C@H]1O[C@H](O[C@H]2[C@H](O)[C@@H](O[C@H]3O[C@H](CO)[C@@H](O)[C@H](N)[C@H]3O)[C@H](N)C[C@@H]2N)[C@H](N)C[C@@H]1O` [tobramycin] was tested. Which “zone of inhibition (ZOI)” value [1, 8] did it give?
**A.** Its value is “appearance of ZOI in all conditions”.

**Q.** Which results are given for `NC1C(OP(=O)(O)OP(=O)(O)OCC2OC(n3ccc(=O)[nH]c3=O)C(O)C2O)OC(CO)C(O)C1O` (stereo not shown) [UDP-GlcNH2]?
**A.** ∆G (KasQ [5]): NBD; ∆H (KasQ [5]): NBD; ∆S (KasQ [5]): NBD; Kd (KasQ [5]): Neither UDP-GlcNH2 that was enzymatically synthesized using the published procedure [38] nor AMP, ADP, ATP, GMP, GDP, or GTP shows detectable binding affinity and NBD; acetylation by KasF (KasF): not subject to acetylation of KasF; also recorded: could not observe the formation of UDP-GlcNAc

**Q.** For `CN[C@@H]1[C@@H](O)[C@@H](O[C@@H]2[C@@H](O)[C@H](O[C@H]3OC(CN)=CC[C@H]3N)[C@@H](N)C[C@H]2N)OC[C@]1(C)O` [sisomicin], which “zone of inhibition (ZOI)” value [1, 8] is on record?
**A.** The value was “appearance of ZOI in all conditions”.

**Q.** `CC(=O)NC1C(OP(=O)(O)OP(=O)(O)OCC2OC(n3ccc(=O)[nH]c3=O)C(O)C2O)OC(CO)C(O)C1O` (stereo not shown) [UDP-GlcNAc 1, UDP-N-acetyl-glucosamine] was tested. Which kcat (KasQ [6]; listed as UDP-GlcNAC) did it give?
**A.** Its kcat is 1.33 (± 0.24) s^−1.

**Q.** What about the kcat (KasQ [6]; listed as UDP-GlcNAc) of the same molecule?
**A.** Its kcat is 1.33 s⁻¹.

**Q.** What about the Kd (KasQ Q95E) of the same molecule?
**A.** Its Kd is 14.2 µM.

**Q.** And the n (KasQ Q95E; ITC binding stoichiometry, KasQ mutant Q95E)?
**A.** The n was 0.7 ± 0.0.

**Q.** What about the “∆G” value (KasQ Q95E; ITC, KasQ mutant Q95E) of the same molecule?
**A.** The value was -6.607 ± 0.0679 kcal/mol.

**Q.** And the “∆H” value (KasQ Q95E; ITC, KasQ mutant Q95E)?
**A.** Its value is -0.6141 ± 0.0679 kcal/mol.

**Q.** And the “∆S” value (KasQ Q95E; ITC, KasQ mutant Q95E)?
**A.** The value was 20.1 cal mol-1 K-1.

**Q.** What about the Kd (KasQ Q95A) of the same molecule?
**A.** Its Kd is 45.2 µM.

**Q.** What about the n (KasQ Q95A; ITC binding stoichiometry, KasQ mutant Q95A) of the same molecule?
**A.** The n was 1.6 ± 0.1.

**Q.** And the “∆G” value (KasQ Q95A; ITC, KasQ mutant Q95A)?
**A.** The value was -5.939 ± 0.1764 kcal/mol.

**Q.** What about the “∆H” value (KasQ Q95A; ITC, KasQ mutant Q95A) of the same molecule?
**A.** The value was -0.7212 ± 0.1764 kcal/mol.

**Q.** And the “∆S” value (KasQ Q95A; ITC, KasQ mutant Q95A)?
**A.** Its value is 17.5 cal mol-1 K-1.

**Q.** And the Kd (KasQ E308A)?
**A.** The Kd was “NBD”.

**Q.** And the “∆G” value (KasQ E308A)?
**A.** The value was “NBD”.

**Q.** And the “∆H” value (KasQ E308A)?
**A.** The value was “NBD”.

**Q.** And the “∆S” value (KasQ E308A)?
**A.** The value was “NBD”.

**Q.** What about the Kd (KasQ E308Q) of the same molecule?
**A.** Its Kd is “NBD”.

**Q.** And the “∆G” value (KasQ E308Q)?
**A.** The value was “NBD”.

**Q.** And the “∆H” value (KasQ E308Q)?
**A.** The value was “NBD”.

**Q.** And the “∆S” value (KasQ E308Q)?
**A.** The value was “NBD”.

**Q.** And the “∆G” value (KasQ [5])?
**A.** The value was “NBD”.

**Q.** And the “∆H” value (KasQ [5])?
**A.** Its value is “NBD”.

**Q.** And the “∆S” value (KasQ [5])?
**A.** The value was “NBD”.

**Q.** And the Kd (KasQ [5])?
**A.** The Kd was “NBD”.

**Q.** `NCCC[C@H](N)CC(=O)N[C@@H]1[C@H](O)[C@@H](OC(N)=O)[C@@H](CO)O[C@H]1NC1=N[C@@H]2C(=O)NC[C@@H](O)[C@H]2N1` [streptothricin-F] was tested. Which “zone of inhibition (ZOI)” value [1, 8] did it give?
**A.** The value was “appearance of ZOI in all conditions”.

B1: KasH (enzyme, Streptomyces kasugaensis, UniProt A0A0K1H2T0 1-130, looked up)
chain: MTITYEWRGGFDNAALNALHADGFGPPIAQTDWRTRLERHSLGWVCAWEDGLIGFVNVVWDGGAHAFILDTVVARHCRSRGVGAALVAKAADEARAANCEWLHVDFEEHLRAFYFDACGFKETTAGLIAL
notes: KasH, acetyltransferase of the kasugamycin biosynthetic gene cluster, Streptomyces kasugaensis; gene amplified and cloned into pET28a+; also called acetyltransferase KasH; source: E. coli BL21, purified (Ni-agarose, gel filtration)
**Q.** How did the “stoichiometry N” value [7] turn out when B1 was run?
**A.** Its value is 2.
